Measurements: US20220146526A1, “METHOD FOR EVALUATING SAMPLE, ANALYSIS METHOD, METHOD FOR DETECTING DEGRADED SAMPLE, MARKER FOR DETECTING DEGRADED BLOOD PLASMA SAMPLE, AND MARKER FOR DETECTING DEGRADED SERUM SAMPLE” (SHIMADZU CORPORATION, priority 2019, published 2022)

Assays:
Type in all cases: physicochemical, human
[1] = GC/MS of blood plasma sample: time from blood collection to cooling of blood (Table B); set-up: key to Rate of increase or decrease / Rate of increase or decrease (first value, increase): detection intensity relative to 1 at cooling time ≤1 min; conditions: for Rate of increase or decrease: detection intensity relative to 1 at 1 minute or less, blood collection to cooling 5 minutes; for Increase or decrease: detection intensity, blood collection to cooling 5 minutes or more vs 1 minute or less
Method: (§1) At room temperature, 5 mL of blood from a healthy subject was taken into a blood-collecting vessel containing EDTA, and the blood-collecting vessel was inverted for mixing, then cooled, and allowed to stand at 4° C. Here, in order to investigate how the detection intensity of molecules contained in the sample was affected in a case where the time to cooling was set to 5 minutes or more as compared to that in a case where the time to cooling was set to 1 minute or less, preparations were performed under both the former condition and the latter condition. After standing, the blood sample was subjected to centrifugation under a condition of 4° C., 3000 rpm, and 15 minutes. […] After centrifugation, the blood-collecting vessel was left to stand at room temperature for 30 minutes, and the blood plasma was isolated during this 30 minutes. The obtained blood plasma sample was frozen and stored. Here, in order to investigate how the detection intensity of molecules contained in the sample was affected in cases where freezing and thawing was performed 4 times, 6 times, and 10 times after freezing as compared to that in a case where freezing and thawing was performed 2 times after freezing, freezing and thawing was performed under the respective conditions of 2, 4, 6, and 10 times.
(§2) Frozen blood plasma samples and serum samples were subjected to GC/MS or LC/MS. In GC/MS, the blood plasma samples and serum samples were subjected to methoxymation and trimethylsilylation and then introduced to GC-MS.
(§3) GC/MS was conducted using GCMS·TQ8040 (Shimadzu Corporation) that was a GC·MS equipped with AOC·20i (Shimadzu Corporation) as an autosampler.
(§4) Column: BPX5 (inner diameter of 0.25 mm, length of 30 m, and film thickness of 0.25 μm) (SGE)
(§5) Column temperature: maintained at 60° C. for 2 minutes, then raised at 15° C./min, and maintained at 330° C. for 3 minutes.
(§6) Inlet temperature: 250° C.
(§7) Carrier gas control mode: constant linear velocity of 39.0 cm/sec
(§8) Sample introduction method: split (split ratio of 30:1) Injection volume: 1 μL
(§9) Ionization method: electron ionization
(§10) Ionization current: 60 μA
(§11) Interface temperature: 280° C.
(§12) Ion source temperature: 200° C.
(§13) Mode: multiple reaction monitoring (MRM)
Table B presents compounds of which the detection intensity increased or decreased by 30% or more in a case where the time from blood collection to cooling of blood, when a blood plasma sample was analyzed by GC/MS, was set to 5 minutes or more as compared to that in a case where the time was set to 1 minute or less. The rate of increase or decrease in Table B is the value of detection intensity relative to 1 that is the detection intensity in a case where the time from blood collection to cooling is set to 1 minute or less.

[2] = GC/MS of blood plasma sample: number of times of freezing and thawing (Table C); conditions: for Rate of increase or decrease: detection intensity relative to 1 at 2 times; for Increase or decrease: detection intensity; for Rate of increase or decrease (second value, decrease) / Rate of increase or decrease (first value, increase): different from individual to individual, relative to 1 at 2 times; for Rate of increase or decrease (second value, decrease): individuals with decrease; for Rate of increase or decrease (first value, increase): individuals with increase
Method: as §1, §2, §3, §4, §5, §6, §7, §8, §9, §10, §11, §12, §13
The rate of increase or decrease in Table C is the value of detection intensity relative to 1 that is the detection intensity in a case where the number of times of freezing and thawing is set to 2 times.

[3] = GC/MS of blood plasma sample: time from blood collection to centrifugation (Table A); conditions: blood collection to centrifugation; for Rate of increase or decrease: detection intensity relative to 1 at 15 minutes; for Increase or decrease: detection intensity
Method: as §1, §2, §3, §4, §5, §6, §7, §8, §9, §10, §11, §12, §13
The rate of increase or decrease in Table A is the value of detection intensity relative to 1 that is the detection intensity in a case where the time from blood collection to centrifugation is set to 15 minutes.

[4] = GC/MS of serum sample: time from blood collection to centrifugation (Table G); conditions: blood collection to centrifugation; for Rate of increase or decrease: detection intensity relative to 1 at 15 minutes, after 4 hours; for Increase or decrease: detection intensity, after 4 hours vs 15 minutes
Method in brief: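 Blood was held for varying times before centrifugation (room temperature, 3500 rpm, 5 min); serum was frozen, then methoxymated and trimethylsilylated for GC/MS with electron ionization in MRM mode. Values are detection intensities relative to the 15-minute collection-to-centrifugation condition, set as 1.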

[5] = GC/MS of serum sample: number of times of freezing and thawing (Table I); conditions: serum, GC/MS
Method in brief: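 Serum was isolated after centrifugation at room temperature (3500 rpm, 5 min), frozen, and put through 2, 4, 6 or 10 freeze–thaw cycles. Samples were methoxymated and trimethylsilylated, then run by electron-ionization GC/MS in MRM mode on a BPX5 column (60 to 330 °C). Detection intensity is given relative to the 2-cycle sample, set as 1.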

[6] = GC/MS of serum sample: time from centrifugation to isolation (Table H)
Method in brief: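 Blood was centrifuged at room temperature, 3500 rpm, 5 min, and the vessel left at room temperature for 30 min, 1 h or 6 h before serum isolation. Serum was methoxymated, trimethylsilylated and analysed by GC/MS with electron ionization in MRM mode; intensities expressed relative to the 30-min condition (=1).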

[7] = freezing and thawing 4 times vs 2 times
[8] = freezing and thawing 6 times vs 2 times

SMILES | Rate of increase or decrease [1] | Increase or decrease [1] | Increase or decrease [2, 7] | Rate of increase or decrease ([3]; after 4 hours) | Increase or decrease ([3]; after 4 hours vs 15 minutes) | Rate of increase or decrease [4] | Increase or decrease [4] | Increase or decrease [2, 8] | further results
CS(=O)(=O)CC[C@H](N)C(=O)O [Methionine sulfone] | 0.70 | Decrease | Increase | 4.98 | Increase | – | – | – | Rate of increase or decrease ([2]; freezing and thawing 4 times): 1.77
NCCS(=O)O [Hypotaurine] | 1.43 | Increase | – | – | – | 1.69 | Increase | – | Rate of increase or decrease ([3]; after 8 hours): 1.36; Increase or decrease ([3]; after 8 hours vs 15 minutes): Increase
O=C(O)c1cccnc1C(=O)O [Quinolinic acid] | – | Different from individual | Different from individual | 2.24 | Increase | – | – | – | Rate of increase or decrease (second value, decrease) ([1]; different from individual to individual, individuals with decrease, relative to 1 at 1 minute or less, collection to cooling 5 minutes): 0.41; Rate of increase or decrease (first value, increase) ([1]; different from individual to individual, individuals with increase, relative to 1 at 1 minute or less, collection to cooling 5 minutes): 1.67; Rate of increase or decrease (second value, decrease) ([2]; freezing and thawing 4 times): 0.68; Rate of increase or decrease (first value, increase) ([2]; freezing and thawing 4 times): 1.70
NCCc1c[nH]cn1 [Histamine] | 0.67 | Decrease | – | 1.78 | Increase | – | – | – | Rate of increase or decrease ([2]; freezing and thawing 10 times): 1.63; Increase or decrease ([2]; freezing and thawing 10 times vs 2 times): Increase
CC(C)CC(O)C(=O)O (stereo not shown) [2-Hydroxyisocaproic acid] | 1.31 | Increase | – | – | – | – | – | Decrease | Rate of increase or decrease ([2]; freezing and thawing 6 times): 0.66
O=C[C@H](O)[C@H](O)[C@H](O)CO [Ribose] | – | Increase | – | – | – | 0.41 | Decrease | Different from individual | Rate of increase or decrease ([5]; detection intensity relative to 1 at 2 times, freezing and thawing 4 times): 1.68; Increase or decrease ([5]; detection intensity, freezing and thawing 4 times vs 2 times): Increase; Rate of increase or decrease ([6]; detection intensity relative to 1 at 30 minutes, after 1 hour): 1.76; Increase or decrease ([6]; detection intensity, after 1 hour vs 30 minutes): Increase; Rate of increase or decrease (second value, decrease) ([2]; freezing and thawing 6 times): 0.70; Rate of increase or decrease (first value, increase) ([2]; freezing and thawing 6 times): 1.39
